Results from ChEMBL document CHEMBL2176960, “Mechanism-based inactivation (MBI) of cytochrome P450 enzymes: structure-activity relationships and discovery strategies to mitigate drug-drug interaction risks” (J Med Chem, 2012).
Each block holds one compound with its values, some of them ahead of it.

How the values were obtained:
[1] = target: T1, Cytochrome P450 2C8 (Homo sapiens, UniProt P10632); test: Inhibition of CYP2C8 in human liver microsomes in presence of NADPH; assay type: ADME, Microsome
T1 sequence (P10632 whole entry): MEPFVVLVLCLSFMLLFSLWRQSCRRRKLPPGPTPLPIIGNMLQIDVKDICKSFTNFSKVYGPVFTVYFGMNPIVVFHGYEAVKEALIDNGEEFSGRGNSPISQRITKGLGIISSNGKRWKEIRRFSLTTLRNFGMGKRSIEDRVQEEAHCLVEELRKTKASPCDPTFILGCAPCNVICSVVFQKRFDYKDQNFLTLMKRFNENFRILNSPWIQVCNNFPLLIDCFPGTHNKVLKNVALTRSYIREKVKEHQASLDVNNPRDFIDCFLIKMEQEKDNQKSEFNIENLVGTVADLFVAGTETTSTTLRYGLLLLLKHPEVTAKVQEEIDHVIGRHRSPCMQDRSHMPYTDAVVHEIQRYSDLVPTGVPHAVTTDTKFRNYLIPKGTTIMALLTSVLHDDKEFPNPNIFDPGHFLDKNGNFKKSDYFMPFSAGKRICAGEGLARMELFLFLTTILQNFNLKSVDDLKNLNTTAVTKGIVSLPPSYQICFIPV

[2] = target: T1, Cytochrome P450 2C8; test: Inhibition of CYP2C8; assay type: ADME
[3] = target: T1, Cytochrome P450 2C8; test: (§1) Time dependent inhibition of CYP2C8 in human liver microsomes; assay type: ADME, Microsome
[4] = target: T2, CYP2C8 (Homo sapiens, UniProt P10632); test: as §1; assay type: ADME, Microsome; details: human, liver microsomes
T2 sequence (P10632 whole entry): T1 sequence (P10632 whole entry)

[5] = target: T3, CYP3A4 (Homo sapiens, UniProt P08684); test: Inhibition of CYP3A4-mediated testosterone 6 beta hydroxylation in human liver microsome by Dixon plot analysis; assay type: ADME; details: liver microsomes, probe testosterone (6 beta-hydroxylation)
[6] = target: T4, Cytochrome P450 3A4 (Homo sapiens, UniProt P08684); test: Time dependent inhibition of CYP3A4-mediated testosterone-6-beta hydroxylation in human liver microsome; assay type: ADME
[7] = target: T4, Cytochrome P450 3A4; test: (§2) Inhibition of CYP3A4 in human liver microsomes in presence of NADPH; assay type: ADME, Microsome
[8] = target: T3, CYP3A4; test: as §2; assay type: ADME, Microsome; details: human, liver microsomes
[9] = target: T4, Cytochrome P450 3A4; test: (§3) Time dependent inhibition of CYP3A4 in human liver microsomes; assay type: ADME, Microsome
[10] = target: T3, CYP3A4; test: as §3; assay type: ADME, Microsome; details: human, liver microsomes
[11] = species on record: Homo sapiens; test: Inhibition of CYP2B6 in human assessed as decrease of hydroxybupropion metabolite systemic exposure; assay type: ADME, organism-based; design: scale not given: the % may be the effect or the level left; details: in vivo
[12] = target: Cytochrome P450 2C19 (Homo sapiens, UniProt P33261); test: (§4) Time dependent inhibition of CYP2C19
[13] = target: CYP2C19 (Homo sapiens, UniProt P33261); test: as §4
[14] = species on record: Homo sapiens; test: Inhibition of CYP2B6 in human assessed as increase of bupropion systemic exposure; assay type: ADME, organism-based; design: scale not given: the % may be the effect or the level left; details: in vivo
[15] = Half life in human; assay type: ADME, organism-based; details: in vivo
[16] = Oral bioavailability in human; assay type: ADME, organism-based; details: in vivo
[17] = Lipophilicity, log D of the compound; assay type: physicochemical; details: octanol/water
[18] = target: T1, Cytochrome P450 2C8; test: Reversible inhibition of CYP2C8 in human liver microsomes; assay type: ADME, Microsome
[19] = target: Cytochrome P450 2C9 (Homo sapiens, UniProt P11712); test: Reversible inhibition of CYP2C9 in human liver microsomes; assay type: ADME, Microsome
[20] = Clearance in human; assay type: ADME, organism-based; details: in vivo
[21] = target: T4, Cytochrome P450 3A4; test: (§5) Time dependent inhibition of CYP3A4; assay type: ADME
[22] = target: T3, CYP3A4; test: as §5; assay type: ADME

T4 sequence (P08684 whole entry): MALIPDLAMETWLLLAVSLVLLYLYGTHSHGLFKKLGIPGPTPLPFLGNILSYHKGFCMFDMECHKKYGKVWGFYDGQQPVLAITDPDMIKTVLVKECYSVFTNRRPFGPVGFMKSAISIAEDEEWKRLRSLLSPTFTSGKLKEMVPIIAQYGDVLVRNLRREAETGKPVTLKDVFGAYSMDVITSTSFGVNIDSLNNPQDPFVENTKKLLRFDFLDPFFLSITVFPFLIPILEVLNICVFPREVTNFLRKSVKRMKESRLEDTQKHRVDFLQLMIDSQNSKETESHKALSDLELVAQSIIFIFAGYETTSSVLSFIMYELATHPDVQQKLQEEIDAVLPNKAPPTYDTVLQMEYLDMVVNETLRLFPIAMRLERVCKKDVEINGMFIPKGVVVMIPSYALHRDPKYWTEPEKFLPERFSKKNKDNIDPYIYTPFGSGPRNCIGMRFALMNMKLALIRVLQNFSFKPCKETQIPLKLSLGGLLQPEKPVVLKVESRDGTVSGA
T3 sequence (P08684 whole entry): as above
Cytochrome P450 2C9, sequence (P11712 whole entry): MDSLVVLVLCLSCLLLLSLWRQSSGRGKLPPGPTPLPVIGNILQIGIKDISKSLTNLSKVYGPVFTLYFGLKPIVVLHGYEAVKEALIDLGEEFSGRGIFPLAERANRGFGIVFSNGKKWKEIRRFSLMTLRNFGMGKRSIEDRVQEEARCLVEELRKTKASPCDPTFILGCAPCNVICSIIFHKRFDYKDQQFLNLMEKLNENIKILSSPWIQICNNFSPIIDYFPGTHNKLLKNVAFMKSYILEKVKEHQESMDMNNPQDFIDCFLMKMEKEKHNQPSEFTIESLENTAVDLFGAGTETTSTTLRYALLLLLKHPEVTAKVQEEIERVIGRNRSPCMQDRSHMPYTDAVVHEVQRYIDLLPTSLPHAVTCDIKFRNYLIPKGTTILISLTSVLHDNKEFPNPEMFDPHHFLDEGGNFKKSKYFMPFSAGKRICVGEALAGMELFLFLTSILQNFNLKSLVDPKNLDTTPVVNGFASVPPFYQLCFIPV
Cytochrome P450 2C19, sequence (P33261 whole entry): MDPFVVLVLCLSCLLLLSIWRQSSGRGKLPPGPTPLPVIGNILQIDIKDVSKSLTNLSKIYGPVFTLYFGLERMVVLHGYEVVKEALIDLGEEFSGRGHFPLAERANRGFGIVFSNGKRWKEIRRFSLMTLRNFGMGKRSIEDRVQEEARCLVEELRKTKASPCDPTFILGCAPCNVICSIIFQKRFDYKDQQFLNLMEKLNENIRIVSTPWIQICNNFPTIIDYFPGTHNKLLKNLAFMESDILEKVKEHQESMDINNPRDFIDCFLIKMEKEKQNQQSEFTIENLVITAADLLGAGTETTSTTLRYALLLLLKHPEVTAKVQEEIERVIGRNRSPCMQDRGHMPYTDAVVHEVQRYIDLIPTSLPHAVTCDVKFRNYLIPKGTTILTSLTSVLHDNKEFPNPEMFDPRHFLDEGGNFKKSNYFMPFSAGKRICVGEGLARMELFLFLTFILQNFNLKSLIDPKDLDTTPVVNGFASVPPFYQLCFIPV
CYP2C19, sequence (P33261 whole entry): as above

Structure (SMILES): Cc1ccc(C)c(OCCCC(C)(C)C(=O)O[C@@H]2O[C@H](C(=O)O)[C@@H](O)[C@H](O)[C@H]2O)c1
IC50 [1]: 1.8 µM
IC50 [2]: 4.1 µM
Ki [3]: 20 µM
kinact [4]: 0.0035 s⁻¹

Structure (SMILES): COC(=O)[C@H](c1ccccc1Cl)N1CCc2sccc2C1 [CLOPIDOGREL]
Activity [11]: 52%
Ki [12]: 14.3 µM
kinact [13]: 0.000917 s⁻¹
Activity [14]: 60%

Structure (SMILES): CC(=O)Oc1cc2c(s1)CCN(C(C(=O)C1CC1)c1ccccc1F)C2 (stereo not given)
Activity [11]: 23%
Activity [14]: 18%

Structure (SMILES): Cc1ccc(C)c(OCCCC(C)(C)C(=O)O)c1 [GEMFIBROZIL]
IC50 [18]: 95 µM
IC50 [2]: 28 µM
IC50 [19]: 9.6 µM

Structure (SMILES): CC(C)(C)NC(=O)C1(C2CCCCC2)CCN(C(=O)[C@@H](Cc2ccc(Cl)cc2)NC(=O)[C@H]2CCc3ccccc3[C@H]2N)CC1
Ki [21]: 23 µM
kinact [22]: 0.00133 s⁻¹

Structure (SMILES): Clc1ccccc1CN1CCc2sccc2C1 [TICLOPIDINE]
Activity [11]: 84%
Activity [14]: 85%

Structure (SMILES): O=c1n(CCCN2CCN(c3cccc(Cl)c3)CC2)nc2ccccn12 [TRAZODONE]
logD [17]: 1.58

Results, then the compound that gave them:

kinact [5]: 0.00983 s⁻¹
Ki [6]: 0.37 µM
Structure (SMILES): CC(C)CN(C[C@@H](O)[C@H](Cc1ccccc1)NC(=O)O[C@H]1CCOC1)S(=O)(=O)c1ccc(N)cc1

Ki [7]: 18 µM
kinact [8]: 0.00267 s⁻¹
Structure (SMILES): COc1cc(CC(=O)O)ccc1Oc1ccc2[nH]c(C)cc2c1NS(=O)(=O)c1ccc(Cl)cc1Cl

Ki [9]: 12 µM
kinact [10]: 0.00383 s⁻¹
Structure (SMILES): CN(c1ncccc1CNc1nc(Nc2ccc3c(c2)CC(=O)N3)ncc1C(F)(F)F)S(C)(=O)=O [PF-00562271]

half-life [15]: 1 h
bioavailability [16]: 20%
logD [17]: 3.43
Structure (SMILES): CCc1nn(CCCN2CCN(c3cccc(Cl)c3)CC2)c(=O)n1CCOc1ccccc1 [NEFAZODONE]

clearance [20]: 0.8 mL/min/kg
bioavailability [16]: 87%
logD [17]: 5.54
Structure (SMILES): O=C1CCc2ccc(OCCCCN3CCN(c4cccc(Cl)c4Cl)CC3)cc2N1 [ARIPIPRAZOLE]
